Consider two compounds from patent US4296105A, “Derivatives of doxorubicine, their preparation and use” (Institut International de Pathologie Cellulaire et …, priority 1978, dated 1981).

The structures appear in SMILES notation.

The test system of one series is leukemia L1210. Put plainly: Antitumoral activity in DBA2 mice grafted subcutaneously with leukemia L1210 cells. The series is classed as in vivo. The method, then: The tests were made with mice weighing 20 to 22 g grafted subcutaneously with 10^6 cells of leukemia L1210 and treated with daily doses between 5 and 60 mg/kg i.v.
At equitoxic dose, doxorubicine induces 78% ILS, 16% of surviving animals at long term and an average tumoral volume of 24 mm^3 on day 12.

Series [1] can be described thus: Acute toxicity in mice (50% lethal dose, i.v. injection 2 consecutive days). The format is in vivo.
Setting [2] is: DBA2 mice, L1210 s.c., equitoxic dose.
[3] abbreviates: DBA2 mice 20-22 g, 10^6 L1210 cells s.c., i.v. days 1 and 2, 48 mg/kg a day.

In the case of `COc1cccc2c1C(=O)c1c(O)c3c(c(O)c1C2=O)C[C@@](O)(C(=O)CO)C[C@@H]3O[C@H]1C[C@H](N)[C@H](O)[C@H](C)O1` [doxorubicine], in the series on leukemia L1210 (setting [2]), the “increase in life span (ILS)” value turned out to be 78%, the “surviving animals at long term” value came to 16% and the “average tumoral volume on day 12” value stood at 24 mm^3.
In the case of `COc1cccc2c1C(=O)c1c(O)c3c(c(O)c1C2=O)C[C@@](O)(C(=O)CO)C[C@@H]3O[C@H]1C[C@H](NC(=O)[C@@H](N)CC(C)C)[C@H](O)[C@H](C)O1` [N-(L-leucyl)doxorubicine], the LD50 in series [1] (mouse, in vivo, iv) is around 67 mg/kg. Besides, the “LD50 relative to doxorubicine (times more than for doxorubicine)” value in series [1] (versus doxorubicine) came out at 6 times. Besides, in the series on leukemia L1210 (setting [3]), the “increase in life span (ILS)” value is 131%, the “surviving animals at long term” value was determined as 33% and the “average tumoral volume on day 12” value amounted to 0.01 mm^3.
